Test system: Human Leukemia Cell K562
Assay: Inhibitory effects on Human Leukemia Cell K562 (MTT)
Type: cell-based
Conditions: Homo sapiens, K562 cells, 72 h~120 h
Description: K562 cells were seeded in RPMI1640 cell culture solution containing 10% of fetal calf serum (supplemented with 100 ku/L of penicillin and streptomycin each). Culture dish was placed in the cell incubator under 5% of CO2 at 37° C. The culture solution was centrifuged and replaced every 2-3 days to passage and collect cells.
Cells in logarithmic growth phase were formulated into the cell suspensions at the required concentration with RPMI1640 culture solution containing 10% fetal calf serum. The resulting mixture was added to 96-wells cell culture plate at 3,000 cells per well (100 μl); after 12 hours of culture, to each well was added different amount of stock solution. The final concentrations of the samples are 100 μg/ml, 10 μg/ml, 1 μg/ml, […], and 0.01 μg/ml respectively in triplicate. After 72 h˜120 h, supernatant was discarded. To each well was added […] fresh serum-free culture solution containing 5 mg/ml blue tetrazolium (MTT). After culturing for 4 hours at 37° C., the mixture was centrifuged at 3000 rpm/min and the supernatant was discarded. Formazan was dissolved with 200 μl DMSO. After vortex oscillation for 1 min, absorbance value (OD-value) was measured on microplate reader at the wavelength of 570/450 nm. Inhibition ratio=(control group OD-value−drug group OD-value)/control group OD-value×100%.

Compound	IC50 [nM]
Cc1ccc(C(=O)Nc2ccc(C)c(NC(=O)/C=C/c3cccnc3)c2)cc1 [compound 1, N-(4-methyl-3-(3-(pyridin-3-yl)acrylamido)phenyl)-4-methylbenzamide]	< 2.7
Cc1ccc(NC(=O)c2ccc(F)cc2)cc1NC(=O)/C=C/c1cccnc1 [compound 2, N-(4-methyl-3-(3-(pyridin-3-yl)acrylamido)phenyl)-4-fluoro benzamide]	< 2.7
Cc1ccc(NC(=O)c2ccc(F)cc2F)cc1NC(=O)/C=C/c1cccnc1 [compound 3, N-(4-methyl-3-(3-(pyridin-3-yl)acrylamido)phenyl)-2,4-difluoro benzamide]	< 2.5
Cc1ccc(NC(=O)c2ccc(Cl)cc2Cl)cc1NC(=O)/C=C/c1cccnc1 [compound 4, N-(4-methyl-3-(3-(pyridin-3-yl)acrylamido)phenyl)-2,4-dichloro benzamide]	2 to 20
Cc1ccc(NC(=O)c2cc(C(F)(F)F)cc(C(F)(F)F)c2)cc1NC(=O)/C=C/c1cccnc1 [compound 5, N-(4-methyl-3-(3-(pyridin-3-yl)acrylamido)phenyl)-3,5-bis-(trifluoromethyl)benzamide]	1 to 20
Cc1ccc(NC(=O)c2ccc(C)c(C(F)(F)F)c2)cc1NC(=O)/C=C/c1cccnc1 [compound 7, N-(4-methyl-3-(3-(pyridin-3-yl)acrylamido)phenyl)-3-(rifluoromethyl)-4-methyl benzamide]	< 1
Cc1ccc(NC(=O)c2cc(F)cc(C(F)(F)F)c2)cc1NC(=O)/C=C/c1cccnc1 [compound 10, N-(4-methyl-3-(3-(pyridin-3-yl)acrylamido)phenyl)-3-fluoro-5-(trifluoromethyl)benzamide]	< 1
Cc1ccc(NC(=O)c2ccc(CN3CCN(C)CC3)cc2)cc1NC(=O)/C=C/c1cccnc1 [compound 11, N-(4-methyl-3-(3-(pyridin-3-yl)acrylamido)phenyl)-4-((4-methylpiperazin-1-yl)methyl)benzamide]	< 2
Cc1ccc(NC(=O)c2ccc(CN3C[C@@H](C)N[C@@H](C)C3)cc2)cc1NC(=O)/C=C/c1cccnc1 [compound 12]	< 5
CCN1CCN(Cc2ccc(C(=O)Nc3ccc(C)c(NC(=O)/C=C/c4cccnc4)c3)cc2)CC1 [compound 13, N-(4-methyl-3-(3-(pyridin-3-yl)acrylamido)phenyl)-4-((4-ethylpiperazin-1-yl)methyl)benzamide]	2
Cc1ccc(NC(=O)c2ccc(CN3CCN(C)CC3)c(C(F)(F)F)c2)cc1NC(=O)/C=C/c1cccnc1 [compound 19, N-(4-methyl-3-(3-(pyridin-3-yl)acrylamido)phenyl)-4-((4-methylpiperazin-1-yl)methyl)-3-(trifluoromethyl)benzamide]	< 1
CCN1CCN(Cc2ccc(C(=O)Nc3ccc(C)c(NC(=O)/C=C/c4cccnc4)c3)cc2C(F)(F)F)CC1 [compound 20, N-(4-methyl-3-(3-(pyridin-3-yl)acrylamido)phenyl)-4-((4-ethylpiperazin-1-yl)methyl)-3-(trifluoromethyl)benzamide]	< 1
Cc1ccc(NC(=O)c2ccc(CN3CCOCC3)c(C(F)(F)F)c2)cc1NC(=O)/C=C/c1cccnc1 [compound 21, N-(4-methyl-3-(3-(pyridin-3-yl)acrylamido)phenyl)-4-(morpholin-4-ylmethyl)-3-(trifluoromethyl)benzamide]	2
Cc1ccc(NC(=O)c2ccc(CN3CC[C@@H](N(C)C)C3)c(C(F)(F)F)c2)cc1NC(=O)/C=C/c1cccnc1 [compound 22, N-(4-methyl-3-(3-(pyridin-3-yl)acrylamido)phenyl)-4-(((R)-3-(dimethylamino)pyrrolidin-1-yl)methyl)-3-(trifluoromethyl)benzamide]	< 1

The remaining lines, values ahead:

IC50 [nM]	Compound
< 1	Cc1ccc(NC(=O)c2ccc(CN3CCC(N(C)C)C3)c(C(F)(F)F)c2)cc1NC(=O)/C=C/c1cccnc1 [compound 23, N-(4-methyl-3-(3-(pyridin-3-yl)acrylamido)phenyl)-4-(((S)-3-(dimethylamino)pyrrolidin-1-yl)methyl)-3-(trifluoromethyl)benzamide]
2 to 20	Cc1ccc(NC(=O)c2ccc(CN3CCCN(C)CC3)c(C(F)(F)F)c2)cc1NC(=O)/C=C/c1cccnc1 [compound 25, N-(4-methyl-3-(3-(pyridin-3-yl)acrylamido)phenyl)-4-((4-methyl-1,4-homopiperazin-1-yl)methyl)-3-(trifluoromethyl)benzamide]
2 to 20	Cc1ccc(NC(=O)c2ccc(CN3CCN(C)CC3)c(Br)c2)cc1NC(=O)/C=C/c1cccnc1 [compound 26, N-(4-methyl-3-(3-(pyridin-3-yl)acrylamido)phenyl)-4-((4-dimethylpiperazin-1-yl)methyl)-3-bromobenzamide]
< 1	Cc1ccc(NC(=O)c2cc(C(F)(F)F)cc(C(F)(F)F)c2)cc1NC(=O)/C=C/c1cncnc1 [compound 31, N-(4-methyl-3-(3-(pyrimidin-5-yl)acrylamido)phenyl)-3,5-bis-(trifluoromethyl)benzamide]
< 1	Cc1ccc(NC(=O)c2ccc(C)c(C(F)(F)F)c2)cc1NC(=O)/C=C/c1cncnc1 [compound 32, N-(4-methyl-3-(3-(pyrimidin-5-yl)acrylamido)phenyl)-4-methyl-3-(trifluoromethyl)benzamide]
< 1	Cc1ccc(NC(=O)c2cc(F)cc(C(F)(F)F)c2)cc1NC(=O)/C=C/c1cncnc1 [compound 33, N-(4-methyl-3-(3-(pyrimidin-5-yl)acrylamido)phenyl)-5-fluoro-3-(trifluoromethyl)benzamide]
< 1	Cc1ccc(NC(=O)c2ccc(CN3CCN(C)CC3)c(C(F)(F)F)c2)cc1NC(=O)/C=C/c1cncnc1 [compound 39, N-(4-methyl-3-(3-(pyrimidin-5-yl)acrylamido)phenyl)-4-((4-methylpiperazin-1-yl)methyl)-3-(trifluoromethyl)benzamide]
< 1	Cc1ccc(NC(=O)c2ccc(CN3CC[C@@H](N(C)C)C3)c(C(F)(F)F)c2)cc1NC(=O)/C=C/c1cncnc1 [compound 42, N-(4-methyl-3-(3-(pyrimidin-5-yl)acrylamido)phenyl)-4-(((R)-3-(dimethylamino)pyrrolidin-1-yl)methyl)-3-(trifluoromethyl)benzamide]
< 1	Cc1ccc(NC(=O)c2ccc(CN3CCC(N(C)C)C3)c(C(F)(F)F)c2)cc1NC(=O)/C=C/c1cncnc1 [compound 43, N-(4-methyl-3-(3-(pyrimidin-5-yl)acrylamido)phenyl)-4-(((S)-3-(dimethylamino)pyrrolidin-1-yl)methyl)-3-(trifluoromethyl)benzamide]

Same assay, conditions: K562 cells, 72 h~120 h

IC50 [nM]	Compound
< 1	Cc1ccc(NC(=O)c2ccc(CN3CCC(N(C)C)C3)c(C(F)(F)F)c2)cc1NC(=O)/C=C/c1cccnc1 (stereo not shown) [compound 24, N-(4-methyl-3-(3-(pyridin-3-yl)acrylamido)phenyl)-4-((3-(dimethylamino)pyrrolidin-1-yl)methyl)-3-(trifluoromethyl)benzamide]
< 1	Cc1ccc(NC(=O)c2ccc(CN3CCC(N(C)C)C3)c(C(F)(F)F)c2)cc1NC(=O)/C=C/c1cncnc1 (stereo not shown) [compound 44, N-(4-methyl-3-(3-(pyrimidin-5-yl)acrylamido)phenyl)-4-((3-(dimethylamino)pyrrolidin-1-yl)methyl)-3-(trifluoromethyl)benzamide]
